From patent publication US20240252535A1, “CELLULAR COMPOSITION FOR TREATMENT OF DISEASES, DISORDERS OR CONDITIONS AND METHOD OF USE” (priority 2020, published 2024)
Counter-ions that a name gives are not always drawn.

Assays:
5-HT1A receptors = biological target: T1, 5-HT1A receptors (Homo sapiens, UniProt P08908); conditions: cited from earlier work
T1 sequence (P08908 1-422): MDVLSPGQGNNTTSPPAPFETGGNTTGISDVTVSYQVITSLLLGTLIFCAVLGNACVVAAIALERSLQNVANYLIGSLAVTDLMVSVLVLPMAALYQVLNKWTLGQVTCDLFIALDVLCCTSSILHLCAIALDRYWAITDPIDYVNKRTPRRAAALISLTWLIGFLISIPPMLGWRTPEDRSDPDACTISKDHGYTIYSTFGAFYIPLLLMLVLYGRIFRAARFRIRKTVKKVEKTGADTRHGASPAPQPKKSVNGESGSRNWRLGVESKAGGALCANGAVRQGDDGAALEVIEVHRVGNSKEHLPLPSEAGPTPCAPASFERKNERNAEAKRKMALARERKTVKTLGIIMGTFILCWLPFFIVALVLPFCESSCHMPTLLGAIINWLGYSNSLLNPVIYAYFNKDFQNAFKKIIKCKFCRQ

5-HT2A = 5-HT2A (Homo sapiens, UniProt P28223); conditions: cited from earlier work
Chain of 5-HT2A (P28223 whole entry): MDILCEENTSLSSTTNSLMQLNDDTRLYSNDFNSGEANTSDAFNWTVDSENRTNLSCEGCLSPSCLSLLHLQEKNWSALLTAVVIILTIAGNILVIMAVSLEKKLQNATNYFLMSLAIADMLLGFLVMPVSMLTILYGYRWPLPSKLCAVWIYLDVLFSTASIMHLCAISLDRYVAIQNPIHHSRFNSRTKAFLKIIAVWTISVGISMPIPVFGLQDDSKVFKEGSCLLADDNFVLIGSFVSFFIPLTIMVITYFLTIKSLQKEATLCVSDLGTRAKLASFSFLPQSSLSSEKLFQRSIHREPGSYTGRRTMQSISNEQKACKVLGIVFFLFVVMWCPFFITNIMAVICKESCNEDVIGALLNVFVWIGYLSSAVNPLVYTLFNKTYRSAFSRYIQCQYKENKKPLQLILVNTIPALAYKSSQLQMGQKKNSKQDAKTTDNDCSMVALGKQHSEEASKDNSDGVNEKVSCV

ovarian cancer = conditions: administration to tumor-bearing mice; cited from earlier work
Raji cells = assay: CAR-T cell killing of luciferase-expressing Raji cells after pretreatment of CAR-T cells with serotonergic agonist; assay type: cell-based, human; conditions: for enhancement of killing of Raji cells: CD19 CAR-T cells preincubated one hour with 5×10^−5, 1×10^−4 or 2×10^−4 M agonist, washed, co-cultured 4 hours, versus unstimulated CAR-T cells; for level of killing of Raji cells: E:T ratio 3:1, agonist-stimulated CAR-T cells, 1% Triton-X100 control set as 100% killing
Description: Pergolide mesylate and 8-OH-DPAT (Sigma) were each dissolved in dimethyl sulfoxide (DMSO) to 2×10^−2 M. The solutions were subsequently diluted in Basal CAR-T medium (ProMab (Richmond, CA)) supplemented with 10% fetal bovine serum, 100U/mL sodium penicillin G (Rafa, Jerusalem) and 1000U/mL streptomycin (Rafa, Jerusalem), in a serial manner, to the indicated final concentrations. CD19 scFv-4-1BB-CD3ζ CAR-T cells (CAT. PM-CAR1002-1M) purchased from ProMab (Richmond, CA) were incubated with the diluted pergolide mesylate or 8-OH-DPAT for one hour, at 37° C. and 5% C02. The cells were pelleted by centrifugation and washed with regular cell growth medium to remove pergolide mesylate and 8-OH-DPAT prior to co-culture with target luciferase Raji cells.
Luciferase Raji cells stably expressing luciferase (Raji/NF-kB Reporter (Luc) stable cell line Cat. CL-1280) were purchased from FenicsBio (Halethorpe, MD) and grown in RPMI medium (Gibco Cat. 21875-034) supplemented with 10% fetal bovine serum, 100U/mL sodium penicillin G (Rafa, Jerusalem) and 1000 U/mL streptomycin (Rafa, Jerusalem), at 37° C. and 5% C02.
Target 2.5×10^3 Raji-luc cells were cultured, at 37° C. and 5% CO2, in each well of 96-well plates, either in medium, medium containing 1% Triton-X100 (Sigma), or with effector CAR-T cells, at an effector:target cell ratio of 0.5:1, 1:1, or 3:1 for 4 hours. Four replicate wells were prepared for each type of sample. Following the incubation period, the cells were incubated with 50 μL of reconstituted reagent (Bright-Glo Luciferase Assay System, E2620) for 2 min to detect the fluorescence intensity (FLUOstar OMEGA). The fluorescence intensity of the 1% Triton-X100 control was set as 100% killing.

CN(C)CCc1c[nH]c2cccc(OP(=O)(O)O)c12 [psilocybin]
Ki (5-HT1A receptors): 190 nM
Ki (5-HT2A): 6 nM

CN[C@H]1CC[C@@H](c2ccc(Cl)c(Cl)c2)c2ccccc21 [sertraline]
time to disease progression (ovarian cancer): decreased
tumor weight (ovarian cancer): increased

CCCN(CCC)C1CCc2cccc(O)c2C1 (stereo not shown) [8-OH-DPAT, 8-hydroxy-2-(di-n-propylamino)tetralin]
enhancement of killing of Raji cells (Raji cells): 2-3 fold
level of killing of Raji cells (Raji cells): approximately 100%

NCCc1c[nH]c2ccc(O)cc12 [serotonin, 5-hydroxytryptamine]
time to disease progression (ovarian cancer): decreased
tumor weight (ovarian cancer): increased

CCCN1C[C@H](CSC)C[C@@H]2c3cccc4[nH]cc(c34)C[C@H]21 [pergolide mesylate]
enhancement of killing of Raji cells (Raji cells): 2-3 fold
level of killing of Raji cells (Raji cells): approximately 100%
